Laboratory results: US20240252496A1, “SELECTIVE HYPOTHALAMUS PERMEABLE HDAC6 INHIBITORS FORTREATMENT OF LEPTIN-RESISTANT OBESITY” (The Children’s Medical Center Corporation, priority 2022, published 2024)

What was measured:
[1] = tested on: DIO mice; assay: Metabolic cages (CLAMS) in DIO mice; format: in vivo
Description: Diet induced obese (DIO) mice were placed into metabolic cages and received ACY775 (10 mg/kg, i.p., n=7) or vehicle (n=8) once a day for 3 days. Energy expenditure, respiratory exchange ratios (RER; VCO2/VO2), ambulatory count (physical activity) from each group of mice were determined. Bar graphs represent average of two dark (8-20 and 32-44 hr) and two light cycles ([…]).
Comprehensive Lab Animal Monitoring System (CLAMS) was used to measure metabolic parameters such as energy expenditure (EE) and respiratory exchange ratio (RER) and physical activity levels in Vehicle- and ACY775-treated mice.

[2] = tested on: DIO mice; assay: Conditioned place preference (CPP) assay in DIO mice; format: in vivo; settings: fed and fasting conditions, vs vehicle
Description: DIO mice were treated with vehicle or ACY775 (10 mg/kg, i.p., once a day) for 3 days. On the fourth day, 1 h after the beginning of the light cycle, the mice were administered vehicle or ACY775 (10 mg/kg, i.p.) and the conditioned place preference (CPP) assay under the ad libitum feeding condition was utilized. The CPP assay was performed 6 h later under the ad libitum feeding condition (n=10 mice for both the Vehicle- and ACY775-treated groups). CPP assay under a 20-h fasting condition was also performed. DIG mice were treated with vehicle or ACY775 (10 mg/kg, i.p.) once a day and fasted for 15 h after the third injection. On the fourth day, 1 h after the beginning of the light cycle, the mice were administered vehicle or ACY775 (10 mg/kg body weight, i.p.) and the CPP assay was performed 5 h after this injection under the fasting condition (n=10 mice for both the Vehicle- and ACY775-treated groups).
Measurements were made of the total distance that the mice traveled during the CPP test, the average velocity of movement during the assay, the total time the mice spent in the dark chamber during the test; the frequency with which the mice traveled to the dark chamber during the test; the total time the mice spent in the food-paired white chamber; the frequency with which the mice traveled to the food paired white chamber; the total time the mice spent in the food-containing zone within the food-paired side chamber; and the frequency with which the mice traveled to the food-containing zone within the food-paired side chamber during the test.

[3] = tested on: HDAC6 KO mice; assay: 3-week treatment of DIO WT versus HDAC6 KO mice; format: in vivo
[4] = tested on: db/db mice; assay: 3-week treatment of db/db mice; format: in vivo
Description: Daily food intake (g), Serum leptin (ng/ml), lean mass (g), fat mass (g) and fat percentage (%) were measured after 3 weeks of treatment measured by DEXA scan. GTT was determined after 1 week of treatment. AOC analysis for GTT was performed and Blood glucose (mg/dl) levels were measured after 1 week of treatment. Blood glucose (mg/dl) levels and Serum insulin (ng/ml) levels were measured after 3 weeks of treatment. ITT was assessed after 2 weeks of treatment. H&E staining of the liver sections was conducted after 3 weeks of treatment.

[5] = tested on: DIO mice; assay: Single dose food intake in 24 h-fasted DIO mice; format: in vivo; settings: ACY775 10, ACY738 50 mg/kg i.p.
Description: Food intake was analyzed hourly until 3:00 am. […] DEXA scans were performed in two different cohorts.

[6] = tested on: WT lean mice; assay: 3-week treatment of WT lean mice; format: in vivo
Description: Daily food intake (g) during 3 weeks of treatment. Serum leptin (ng/ml) levels were measured after 3 weeks of treatment. Lean mass (g); fat mass (g) and fat percentage (%) after 3 weeks of treatment were measured by DEXA scan. GTT was measured after 1 week of treatment. AOC analysis for GTT was performed. Blood glucose (mg/dl) level was measured after 1 week of treatment. ITT was measured after 2 weeks of treatment. Serum insulin (ng/ml) levels were measured after 3 weeks of treatment.

[7] = in vivo; cited from earlier work
[8] = tested on: DIO mice; assay: Glucose homeostasis in chronically treated DIO mice (GTT, ITT, insulin, HOMA-IR, liver H&E); format: in vivo
Description: DIO mice were treated with ACY775 (10 mg/kg/day, i.p.) for 3 weeks. Daily body weight (g) of DIO mice treated with vehicle (n=17) or ACY775 (n=17) during 3 weeks of treatment was determined. Daily food intake (g) during 3 weeks of vehicle or ACY775 treatment was assessed. 24 hours' food intake per mouse during the first week of vehicle or ACY775 treatment was determined. Serum leptin (ng/ml) levels after 3 weeks of vehicle (n=24) or ACY775 (n=24) treatment was assessed. Lean mass (g), fat mass (g) and fat percentage (%) after 3 weeks of vehicle (n=17) or ACY775 (n=17) treatment measured by Dual-energy X-ray absorptiometry (DEXA) scan. DEXA scans were performed in two different cohorts. Glucose tolerance test (GTT) after 1 week of vehicle (n=33) or ACY775 (n=26) treated DIO mice was assessed. Area of curve (AOC) analysis for GTT was performed. Blood glucose (mg/dl) levels after 1 week of vehicle (n=17) or ACY775 (n=16) were assessed in treated DIO mice. Insulin tolerance test (ITT) was performed after 2 weeks of vehicle (n=31) or ACY775 (n=21) treatment of DIO mice. Serum insulin (ng/ml) levels were measured after 3 weeks of vehicle (n=22) or ACY775 (n=21) in treated DIO mice. A homeostatic model assessment of insulin resistance (HOMA-IR) was analyzed after 3 weeks of vehicle (n=14) or ACY775 (n=13) treated DIO mice. […]
Blood glucose (mg/dl) levels were measured after 1 week of vehicle (n=16) or ricolinostat (n=16) treated DIO mice. GTT after 1 week of vehicle (n=17) or ricolinostat (n=16) treatment of DIO mice was assessed. AOC analysis for GTT was performed. ITT after 2 weeks of vehicle (n=17) or ricolinostat (n=16) treated DIG mice was measured. Serum insulin (ng/ml) levels after 3 weeks of vehicle (n=8) or ricolinostat (n=8) treatment were measured in DIO mice. Liver sections from 3 weeks of vehicle or ricolinostat treated DIG mice were stained by H&E.

## O=C(NO)c1cnc(NC2(c3cccc(F)c3)CCCCC2)nc1 [ACY775, 2-[[1-(3-fluorophenyl)cyclohexyl]amino]-N-hydroxy-5-pyrimidinecarboxamide]
[1]; 3 days, ACY775 10, ACY738 50 mg/kg i.p.
  energy expenditure: higher in the both dark and light cycle
[1]; dark and light cycles
  respiratory exchange ratio (RER): significantly decreased
[2]
  CPP: appearance frequency in dark side chambers: similar
  CPP: cumulative duration in dark side chambers: no significant differences in cumulative duration
  CPP: time and frequency in food-containing white side chambers: significantly shorter time and had lower frequency of appearance in the food-containing white side chambers
  CPP: time and frequency in the food zone: significantly shorter time and displayed lower frequency of appearance in the food zone
[3]; 3 weeks i.p., ACY775 10, ACY738 50, Tubastatin A 25 mg/kg/day
  body weight, HDAC6 KO vs WT DIO mice: highly significant decrease in the bodyweight of the WT DIO mice when compared to HDAC6 KO DIG mice
[3]; DEXA
  fat mass and fat %, HDAC6 KO vs WT: significantly lower in the wt group
  lean mass, HDAC6 KO vs WT: not different
[3]; mouse, in vivo
  blood glucose, serum insulin and leptin levels, HDAC6 KO vs WT: significantly higher in the ACY775-treated HDAC6 KO group
  food intake, HDAC6 KO vs WT DIO mice: blocked in the HDAC6 KO mice
  glucose tolerance and insulin sensitivity (GTT, ITT), HDAC6 KO vs WT: could not increase glucose tolerance and insulin sensitivity in the HDAC6 KO mice
[4]
  fasting blood glucose after the first week: lower in ACY775-treated mice than vehicle-treated mice
  food intake: transitionally reduced by ACY775 treatment during the first 2 days
  hepatic steatosis: did not improve hepatic steatosis
  plasma insulin levels: did not show any significant alterations
[4]; 1 week
  glucose tolerance (GTT): no difference in glucose tolerance
[4]; 2 weeks
  ITT: no significant difference in blood glucose levels
[4]; 3 weeks
  blood glucose lowering at the end of treatment period: completely diminished
[4]; end of 3 weeks, ACY775 10, ACY738 50 mg/kg i.p.
  body weight heavier than initial body weight: 3.82%±0.99%
[5]
  food intake after a single dose: significantly reduced/blocked the food intake
[6]
  daily food intake: similar
  insulin sensitivity (ITT) and circulating insulin levels: no significant difference in insulin sensitivity and circulating insulin levels
[6]; 3 weeks
  lean mass, total fat mass, fat percentage: did not detect any alterations
[6]; 3 weeks, ACY775 10, ACY738 50 mg/kg i.p.
  body weight: neither ACY775 nor ACY738 affected the body weight
[6]; end of treatment
  liver morphology: similar
[7]
  brain/plasma ratio: 1.26
[8]
  insulin tolerance test (ITT) / insulin sensitivity: significant difference between ACY775-treated mice and those treated with vehicles
[8]; after 1 week
  blood glucose levels: significantly reduced
  glucose tolerance (GTT): significantly improved glucose tolerance
[8]; after 3 weeks
  circulating/serum insulin levels: significantly reduced the circulating insulin levels
  hepatic steatosis (liver H&E): almost completely abolished hepatic steatosis
  insulin resistance (HOMA-IR): significantly reduced the insulin resistance
